Values after ≈ are worked out from the molar mass of the structure shown.
How the values were obtained:
[1] = Tmax in rat at 10 mg/kg, po; assay type: ADME, organism-based; parameters: dose 10 mg/kg, route oral; conditions: in vivo
Adenosine receptor A2a [2] = target: T1, Adenosine receptor A2a (Homo sapiens, UniProt P29274); test: Displacement of [3H]ZM241385 from human adenosine A2A receptor expressed in HEK293 cells; assay type: cell-based
Adenosine receptor A2a [3] = target: T1, Adenosine receptor A2a; test: Antagonist activity at human adenosine A2A receptor assessed as inhibition of CGS-21680-stimulated cAMP production; assay type: functional
Adenosine receptor A1 = target: T2, Adenosine receptor A1 (Homo sapiens, UniProt P30542); test: Displacement of [3H]DPCPX from human adenosine A1 receptor expressed in HEK293 cells; assay type: cell-based
T2 sequence (P30542 whole entry): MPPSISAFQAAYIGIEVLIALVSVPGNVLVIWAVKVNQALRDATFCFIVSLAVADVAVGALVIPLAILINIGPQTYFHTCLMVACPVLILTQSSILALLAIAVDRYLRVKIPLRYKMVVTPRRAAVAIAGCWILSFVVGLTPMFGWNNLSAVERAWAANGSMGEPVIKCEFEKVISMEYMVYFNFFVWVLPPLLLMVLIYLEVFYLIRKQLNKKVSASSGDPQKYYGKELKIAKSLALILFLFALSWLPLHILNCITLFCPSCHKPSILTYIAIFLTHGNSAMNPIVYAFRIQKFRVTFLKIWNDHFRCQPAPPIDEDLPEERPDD

[4] = Lipophilicity, log D of the compound; assay type: physicochemical; conditions: octanol/water
[5] = Solubility at pH 7.4; assay type: physicochemical; conditions: buffer
Adenosine receptor A2a [6] = target: Adenosine receptor A2a (Rattus norvegicus, UniProt P30543); test: Displacement of [3H]ZM241385 from rat adenosine A2A receptor expressed in CHO cells; assay type: cell-based
Cytochrome P450 3A4 = Cytochrome P450 3A4 (Homo sapiens, UniProt P08684); test: Inhibition of CYP3A4; assay type: ADME
Cytochrome P450 2D6 = Cytochrome P450 2D6 (Homo sapiens, UniProt P10635); test: Inhibition of CYP2D6; assay type: ADME
Cytochrome P450 2C9 = Cytochrome P450 2C9 (Homo sapiens, UniProt P11712); test: Inhibition of CYP2C9; assay type: ADME
Cytochrome P450 2C19 = Cytochrome P450 2C19 (Homo sapiens, UniProt P33261); test: Inhibition of CYP2C19; assay type: ADME
Cytochrome P450 1A2 = target: T3, Cytochrome P450 1A2 (Homo sapiens, UniProt P05177); test: Inhibition of CYP1A2; assay type: ADME
T3 sequence (P05177 whole entry): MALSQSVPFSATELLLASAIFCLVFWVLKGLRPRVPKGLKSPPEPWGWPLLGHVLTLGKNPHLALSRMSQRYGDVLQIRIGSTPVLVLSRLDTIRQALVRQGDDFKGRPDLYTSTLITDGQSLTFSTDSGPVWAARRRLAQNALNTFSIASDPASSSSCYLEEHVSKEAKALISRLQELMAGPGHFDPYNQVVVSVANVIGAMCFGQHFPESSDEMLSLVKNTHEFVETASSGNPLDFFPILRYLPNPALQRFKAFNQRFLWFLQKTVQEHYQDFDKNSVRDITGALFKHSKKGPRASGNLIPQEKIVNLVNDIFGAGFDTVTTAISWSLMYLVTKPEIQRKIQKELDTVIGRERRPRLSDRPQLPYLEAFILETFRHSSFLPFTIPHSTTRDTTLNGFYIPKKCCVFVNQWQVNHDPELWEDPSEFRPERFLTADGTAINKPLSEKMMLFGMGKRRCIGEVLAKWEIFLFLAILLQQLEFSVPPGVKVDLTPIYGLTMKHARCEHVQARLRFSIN

[7] = Permeability across human Caco-2 cells; assay type: ADME, cell-based; conditions: read-out: permeability
Caco-2 = test: Ratio of permeability from apical to basolateral side over basolateral to apical side in human Caco-2 cells; assay type: ADME, cell-based
hERG (KCNH2) = hERG (KCNH2) (Homo sapiens, UniProt Q12809); test: Inhibition of human ERG at 10 uM by patch clamp technique
[8] = Drug level in rat brain at 10 mg/kg, po after 1 hr; assay type: ADME, organism-based; parameters: dose 10 mg/kg, route oral; conditions: read-out: Drug uptake
[9] = Drug level in rat brain at 10 mg/kg, po after 4 hrs; assay type: ADME, organism-based; parameters: dose 10 mg/kg, route oral; conditions: read-out: Drug uptake
[10] = Plasma concentration in rat at 10 mg/kg, po after 1 hr; assay type: ADME, organism-based; parameters: dose 10 mg/kg, route oral
[11] = Plasma concentration in rat at 10 mg/kg, po after 4 hrs; assay type: ADME, organism-based; parameters: dose 10 mg/kg, route oral
[12] = Ratio of drug level in brain to plasma in rat at 10 mg/kg, po after 1 hr; assay type: ADME, organism-based; parameters: dose 10 mg/kg, route oral; conditions: brain and plasma, read-out: BPR
[13] = Ratio of drug level in brain to plasma in rat at 10 mg/kg, po after 4 hrs; assay type: ADME, organism-based; parameters: dose 10 mg/kg, route oral; conditions: brain and plasma, read-out: BPR
Rattus norvegicus [14] = test: Inhibition of haloperidol-induced catalepsy in rat assessed as reduction in descent latency at 10 mg/kg, po after 2 hrs; assay type: organism-based; parameters: dose 10 mg/kg, route oral; conditions: in vivo
Rattus norvegicus [15] = test: Inhibition of haloperidol-induced catalepsy in rat assessed as reduction in descent latency at 30 mg/kg, po after 2 hrs; assay type: organism-based; parameters: dose 30 mg/kg, route oral; conditions: in vivo
Rattus norvegicus [16] = test: Potentiation of […]-induced rotational behavior in unilateral 6-hydroxydopamine lesioned po dosed rat after 5 hrs; assay type: ADME, organism-based; conditions: in vivo
Adenosine receptor A2b = target: T4, Adenosine receptor A2b (Homo sapiens, UniProt P29275); test: Inhibition of human adenosine A2B receptor
T4 sequence (P29275 whole entry): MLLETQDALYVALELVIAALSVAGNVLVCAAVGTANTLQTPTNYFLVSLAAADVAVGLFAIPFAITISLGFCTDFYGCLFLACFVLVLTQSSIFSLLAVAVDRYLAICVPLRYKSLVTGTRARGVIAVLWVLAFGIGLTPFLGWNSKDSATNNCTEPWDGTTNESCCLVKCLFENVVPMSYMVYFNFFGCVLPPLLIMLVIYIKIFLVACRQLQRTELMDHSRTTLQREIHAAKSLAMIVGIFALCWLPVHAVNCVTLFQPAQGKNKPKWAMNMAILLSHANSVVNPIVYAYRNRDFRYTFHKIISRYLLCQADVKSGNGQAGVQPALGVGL

Adenosine receptor A3 = target: T5, Adenosine receptor A3 (Homo sapiens, UniProt P0DMS8); test: Inhibition of human adenosine A3 receptor
T5 sequence (P0DMS8 whole entry): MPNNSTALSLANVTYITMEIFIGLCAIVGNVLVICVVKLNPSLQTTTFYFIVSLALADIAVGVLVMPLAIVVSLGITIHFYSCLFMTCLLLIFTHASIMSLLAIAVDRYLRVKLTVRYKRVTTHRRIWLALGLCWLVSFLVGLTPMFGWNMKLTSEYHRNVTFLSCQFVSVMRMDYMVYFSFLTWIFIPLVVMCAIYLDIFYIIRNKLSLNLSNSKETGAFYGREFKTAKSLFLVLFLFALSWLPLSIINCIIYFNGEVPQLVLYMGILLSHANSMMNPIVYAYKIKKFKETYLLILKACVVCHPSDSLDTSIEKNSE

[17] = Plasma concentration in rat at 3 mg/kg, po after 2 hrs; assay type: ADME, organism-based; parameters: dose 3 mg/kg, route oral
[18] = Plasma concentration in rat at 10 mg/kg, po after 2 hrs; assay type: ADME, organism-based; parameters: dose 10 mg/kg, route oral
[19] = Plasma concentration in rat at 30 mg/kg, po after 2 hrs; assay type: ADME, organism-based; parameters: dose 30 mg/kg, route oral
[20] = Drug level in rat brain at 3 mg/kg, po after 2 hrs; assay type: ADME, organism-based; parameters: dose 3 mg/kg, route oral; conditions: read-out: Drug uptake
[21] = Drug level in rat brain at 10 mg/kg, po after 2 hrs; assay type: ADME, organism-based; parameters: dose 10 mg/kg, route oral; conditions: read-out: Drug uptake
[22] = Drug level in rat brain at 30 mg/kg, po after 2 hrs; assay type: ADME, organism-based; parameters: dose 30 mg/kg, route oral; conditions: read-out: Drug uptake
[23] = Ratio of drug level in brain to plasma in rat at 3 mg/kg, po after 2 hrs; assay type: ADME, organism-based; parameters: dose 3 mg/kg, route oral; conditions: brain and plasma
[24] = Ratio of drug level in brain to plasma in rat at 10 mg/kg, po after 2 hrs; assay type: ADME, organism-based; parameters: dose 10 mg/kg, route oral; conditions: brain and plasma
[25] = Ratio of drug level in brain to plasma in rat at 30 mg/kg, po after 2 hrs; assay type: ADME, organism-based; parameters: dose 30 mg/kg, route oral; conditions: brain and plasma

T1 sequence (P29274 whole entry): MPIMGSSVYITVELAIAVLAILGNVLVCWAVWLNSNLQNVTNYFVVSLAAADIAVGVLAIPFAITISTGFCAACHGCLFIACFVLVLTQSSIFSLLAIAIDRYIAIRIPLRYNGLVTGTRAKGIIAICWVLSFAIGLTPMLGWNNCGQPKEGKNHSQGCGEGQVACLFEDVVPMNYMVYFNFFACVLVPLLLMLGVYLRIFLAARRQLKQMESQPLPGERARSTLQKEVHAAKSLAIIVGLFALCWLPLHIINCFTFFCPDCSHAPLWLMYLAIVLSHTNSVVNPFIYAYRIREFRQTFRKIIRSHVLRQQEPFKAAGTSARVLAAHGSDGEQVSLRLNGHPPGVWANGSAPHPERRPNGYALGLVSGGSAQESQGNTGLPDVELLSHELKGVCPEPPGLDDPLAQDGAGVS
Sequence of hERG (KCNH2) (Q12809 whole entry): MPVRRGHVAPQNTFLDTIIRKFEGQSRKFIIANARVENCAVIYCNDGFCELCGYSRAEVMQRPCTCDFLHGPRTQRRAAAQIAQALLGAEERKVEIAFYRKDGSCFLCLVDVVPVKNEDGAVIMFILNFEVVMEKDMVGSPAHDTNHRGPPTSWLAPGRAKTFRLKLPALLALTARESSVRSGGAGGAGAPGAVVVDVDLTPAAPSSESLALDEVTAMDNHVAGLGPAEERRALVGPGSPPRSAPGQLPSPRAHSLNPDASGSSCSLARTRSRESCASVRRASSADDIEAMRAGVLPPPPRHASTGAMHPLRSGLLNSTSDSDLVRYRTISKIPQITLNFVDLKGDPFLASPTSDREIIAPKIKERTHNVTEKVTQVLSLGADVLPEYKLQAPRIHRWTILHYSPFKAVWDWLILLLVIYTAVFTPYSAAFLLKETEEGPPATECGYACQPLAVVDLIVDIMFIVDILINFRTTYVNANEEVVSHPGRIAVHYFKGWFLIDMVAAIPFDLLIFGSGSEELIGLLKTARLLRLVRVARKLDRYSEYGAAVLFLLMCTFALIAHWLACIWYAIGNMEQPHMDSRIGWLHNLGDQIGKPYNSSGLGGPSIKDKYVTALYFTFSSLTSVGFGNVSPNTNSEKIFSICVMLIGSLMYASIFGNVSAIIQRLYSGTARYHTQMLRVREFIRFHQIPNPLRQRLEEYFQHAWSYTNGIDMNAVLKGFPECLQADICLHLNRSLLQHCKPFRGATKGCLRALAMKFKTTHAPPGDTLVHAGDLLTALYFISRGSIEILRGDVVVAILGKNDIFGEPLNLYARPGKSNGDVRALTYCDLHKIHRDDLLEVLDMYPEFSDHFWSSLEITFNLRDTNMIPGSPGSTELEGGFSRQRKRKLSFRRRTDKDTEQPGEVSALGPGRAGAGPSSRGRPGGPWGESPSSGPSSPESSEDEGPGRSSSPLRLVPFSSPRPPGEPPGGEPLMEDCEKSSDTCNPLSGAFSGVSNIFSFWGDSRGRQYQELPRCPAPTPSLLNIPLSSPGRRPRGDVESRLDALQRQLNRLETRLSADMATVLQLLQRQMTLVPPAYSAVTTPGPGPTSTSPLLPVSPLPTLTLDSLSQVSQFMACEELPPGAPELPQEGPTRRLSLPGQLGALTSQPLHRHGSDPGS
Sequence of Cytochrome P450 2D6 (P10635 whole entry): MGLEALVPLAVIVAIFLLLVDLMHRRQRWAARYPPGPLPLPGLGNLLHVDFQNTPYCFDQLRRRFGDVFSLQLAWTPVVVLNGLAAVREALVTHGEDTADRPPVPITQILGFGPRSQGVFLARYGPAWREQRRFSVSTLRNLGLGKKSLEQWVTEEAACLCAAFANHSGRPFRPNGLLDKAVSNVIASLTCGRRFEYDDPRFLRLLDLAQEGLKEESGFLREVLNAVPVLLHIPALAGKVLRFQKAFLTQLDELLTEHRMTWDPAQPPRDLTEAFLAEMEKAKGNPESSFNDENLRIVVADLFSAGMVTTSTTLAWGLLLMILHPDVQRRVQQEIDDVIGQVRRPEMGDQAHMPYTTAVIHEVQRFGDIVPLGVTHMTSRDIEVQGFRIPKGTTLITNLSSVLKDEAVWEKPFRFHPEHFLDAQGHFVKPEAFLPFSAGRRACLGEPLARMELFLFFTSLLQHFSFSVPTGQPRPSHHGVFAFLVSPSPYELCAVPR
Sequence of Cytochrome P450 2C19 (P33261 whole entry): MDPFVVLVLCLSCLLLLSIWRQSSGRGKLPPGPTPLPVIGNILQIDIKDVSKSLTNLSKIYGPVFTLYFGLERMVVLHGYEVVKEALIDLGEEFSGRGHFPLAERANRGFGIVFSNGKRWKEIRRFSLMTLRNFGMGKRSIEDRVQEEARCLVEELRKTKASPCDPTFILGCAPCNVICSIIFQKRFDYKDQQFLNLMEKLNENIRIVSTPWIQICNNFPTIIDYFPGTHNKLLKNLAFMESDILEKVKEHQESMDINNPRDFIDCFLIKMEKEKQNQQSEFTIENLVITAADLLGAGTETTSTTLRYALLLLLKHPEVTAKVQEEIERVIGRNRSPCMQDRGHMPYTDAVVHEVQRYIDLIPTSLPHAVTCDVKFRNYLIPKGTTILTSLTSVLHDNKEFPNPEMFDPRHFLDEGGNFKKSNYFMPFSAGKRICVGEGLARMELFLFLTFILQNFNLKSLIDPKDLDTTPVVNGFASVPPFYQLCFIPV
Sequence of Cytochrome P450 3A4 (P08684 whole entry): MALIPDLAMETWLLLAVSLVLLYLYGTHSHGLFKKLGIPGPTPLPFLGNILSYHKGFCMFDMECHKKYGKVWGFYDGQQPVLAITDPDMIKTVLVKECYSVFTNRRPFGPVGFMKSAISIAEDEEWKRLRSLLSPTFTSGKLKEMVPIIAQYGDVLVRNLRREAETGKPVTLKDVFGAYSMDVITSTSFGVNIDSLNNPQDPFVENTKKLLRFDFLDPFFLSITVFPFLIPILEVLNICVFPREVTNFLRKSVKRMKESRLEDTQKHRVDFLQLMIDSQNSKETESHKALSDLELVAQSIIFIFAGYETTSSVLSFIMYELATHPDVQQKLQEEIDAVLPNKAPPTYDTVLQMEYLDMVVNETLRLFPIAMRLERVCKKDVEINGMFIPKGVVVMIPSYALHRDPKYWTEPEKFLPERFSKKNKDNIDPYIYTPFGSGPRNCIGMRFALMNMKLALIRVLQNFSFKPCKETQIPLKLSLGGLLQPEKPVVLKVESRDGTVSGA
Sequence of Cytochrome P450 2C9 (P11712 whole entry): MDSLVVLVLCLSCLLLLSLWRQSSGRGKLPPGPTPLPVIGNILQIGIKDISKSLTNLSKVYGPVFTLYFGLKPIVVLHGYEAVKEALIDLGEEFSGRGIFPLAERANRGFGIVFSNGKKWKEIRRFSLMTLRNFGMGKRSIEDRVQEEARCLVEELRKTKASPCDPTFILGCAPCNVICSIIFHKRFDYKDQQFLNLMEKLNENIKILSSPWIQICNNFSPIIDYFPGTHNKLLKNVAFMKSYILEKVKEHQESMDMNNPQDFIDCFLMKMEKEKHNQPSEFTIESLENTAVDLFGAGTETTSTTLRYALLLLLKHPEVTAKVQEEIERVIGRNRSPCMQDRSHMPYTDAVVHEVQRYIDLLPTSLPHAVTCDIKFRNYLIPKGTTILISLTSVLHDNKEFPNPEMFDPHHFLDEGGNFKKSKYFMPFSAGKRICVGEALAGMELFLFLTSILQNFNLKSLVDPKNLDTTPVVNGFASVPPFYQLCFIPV
Sequence of Adenosine receptor A2a (Rattus norvegicus, UniProt P30543) (P30543 whole entry): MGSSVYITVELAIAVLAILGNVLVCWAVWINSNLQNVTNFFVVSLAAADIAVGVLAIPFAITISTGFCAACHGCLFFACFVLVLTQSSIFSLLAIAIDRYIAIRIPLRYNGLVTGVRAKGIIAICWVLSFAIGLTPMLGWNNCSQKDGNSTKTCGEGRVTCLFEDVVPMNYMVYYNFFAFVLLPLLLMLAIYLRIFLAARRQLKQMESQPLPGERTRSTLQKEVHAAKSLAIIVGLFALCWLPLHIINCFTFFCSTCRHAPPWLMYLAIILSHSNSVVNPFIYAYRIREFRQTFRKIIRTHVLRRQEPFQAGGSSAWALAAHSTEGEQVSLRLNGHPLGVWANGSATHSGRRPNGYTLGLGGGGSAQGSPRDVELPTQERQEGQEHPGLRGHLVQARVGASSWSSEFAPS

SMILES: COC[C@H]1CCCN1c1cc(NC(C)=O)nc(-n2nc(C)cc2C)n1
- Tmax [1]: 54 min
- Ki (Adenosine receptor A2a [2]): 4.7 nM
- IC50 (Adenosine receptor A2a [3]): 85 nM
- Ki (Adenosine receptor A1): 162 nM
- logD [4]: 2.2
- solubility [5]: 1000 µg/mL (≈ 2900 µM)
- Ki (Adenosine receptor A2a [6]): 48 nM
- IC50 (Cytochrome P450 3A4): > 50000 nM
- IC50 (Cytochrome P450 2D6): > 50000 nM
- IC50 (Cytochrome P450 2C9): > 50000 nM
- IC50 (Cytochrome P450 2C19): > 50000 nM
- IC50 (Cytochrome P450 1A2): 11000 nM
- Papp [7]: 70 ×10⁻⁶ cm/s
- Ratio (Caco-2): 0.7
- inhibition at 10 µM (hERG (KCNH2)): 19%
- concentration at 1 h [8]: 863 ng/g
- concentration at 4 h [9]: 116 ng/g
- concentration at 1 h [10]: 1600 ng/mL
- concentration at 4 h [11]: 333 ng/mL
- Kp at 1 h [12]: 0.51
- Kp at 4 h [13]: 0.33
- Activity (Rattus norvegicus [14]): Active
- Activity (Rattus norvegicus [15]): Active
- Activity (Rattus norvegicus [16]): Dose-dependent effect
- Ki (Adenosine receptor A2b): 145 nM
- Ki (Adenosine receptor A3): 19 nM
- concentration at 2 h [17]: 98 ng/mL
- concentration at 2 h [18]: 1060 ng/mL
- concentration at 2 h [19]: 4640 ng/mL
- concentration at 2 h [20]: 34 ng/g
- concentration at 2 h [21]: 488 ng/g
- concentration at 2 h [22]: 2020 ng/g
- Kp at 2 h [23]: 0.37
- Kp at 2 h [24]: 0.46
- Kp at 2 h [25]: 0.45

— ChEMBL document CHEMBL1143380, “N-[6-amino-2-(heteroaryl)pyrimidin-4-yl]acetamides as A2A receptor antagonists with improved drug like properties and in vivo efficacy” (J Med Chem, 2009)
